Data taken from patent US6906205B2, “Spiro and dispiro 1,2,4-trioxolane antimalarials” (Medicines for Malaria Venture MMV, priority 2002, dated 2005).
In brackets after ≈: the same amount, converted by molar mass.

Tests used:
[1] = tested on: P. falciparum K1 strain (Thailand resistant to chloroquine); test: semiautomated microdilution assay, [3H]-hypoxanthine incorporation, K1 strain; assay type: cell-based, Plasmodium falciparum; details: K1 strain, 72 h incubation
Summary of the method: (§1)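 Asynchronous stock cultures → intraerythrocytic forms; semiautomated microdilution; IC50 by logit regression.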

[2] = tested on: P. falciparum NF54 strain (sensitive to standard antimalarials); test: semiautomated microdilution assay, [3H]-hypoxanthine incorporation, NF54 strain; assay type: cell-based, Plasmodium falciparum; details: NF54 strain, 72 h incubation
Summary of the method: as §1

[3] = tested on: ANKA strain of P. berghei; test: single dose STI in vivo screen in infected mice; parameters: species or system Plasmodium berghei; details: for Activity (%) po / Activity (%) sc / Activity (%) SSVpo: percent reduction in parasitemia day 3 post-infection, mice; for Activity (%) po / Survival (days) po: single 10 mg/kg po in 3% ethanol and 7% Tween 80; for Activity (%) sc / Survival (days) sc: single 10 mg/kg sc in 3% ethanol and 7% Tween 80; for Activity (%) SSVpo: single po dose in standard suspending vehicle (SSV); for Survival (days) po / Survival (days) sc / Survival (days) SSVpo: untreated control 5.6 ± 0.3; for Survival (days) SSVpo: single po dose in SSV
Summary of the method: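 Groups of 3-5 Moro SPF or NMRI mice infected with the ANKA strain of P. berghei received a single dose of trioxolane on day one post-infection. The compound was given in 3% ethanol and 7% Tween 80 or in SSV (0.5% w/v CMC, 0.5% v/v benzyl alcohol, 0.4% v/v Tween 80, 0.9% w/v sodium chloride in water). Antimalarial activity was scored as percent reduction in parasitemia on day three and as survival time versus untreated controls. Survival to day 30 counted as cure.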

SMILES | IC50 (ng/ml) K1 [1] | IC50 (ng/ml) NF54 [2] | Activity (%) po [3] [%] | Activity (%) sc [3] [%] | Activity (%) SSVpo [3] [%] | Survival (days) po [3] [days] | Survival (days) sc [3] [days] | Survival (days) SSVpo [3] [days]
O=C(OCCn1ccnc1)C1CCC2(CC1)OOC1(O2)C2CC3CC(C2)CC1C3 (stereo not drawn) [OZ182] | 4.5 ng/mL (≈ 11.2 nM) | 5.5 ng/mL (≈ 13.7 nM) | 91 | 95 | 96 | 8.0 | 7.7 | 7.3
O=C(NO)c1ccc([C@H]2CC[C@]3(CC2)OOC2(O3)C3CC4CC(C3)CC2C4)cc1 (stereo partly drawn) [OZ183] | 0.80 ng/mL (≈ 2 nM) | 2.1 ng/mL (≈ 5.26 nM) | 65 | 81 | 19 | 6.0 | 8.3 | 6.0
C1CC1CNC1CCC2(CC1)OOC1(O2)C2CC3CC(C2)CC1C3 (stereo not drawn) [OZ184] | 1.0 ng/mL (≈ 3 nM) | 1.4 ng/mL (≈ 4.2 nM) | 54 | 97 | 59 | 6.7 | 8.7 | 7.0
C1C2CC3CC1CC(C2)C31OOC2(CCC(NC3CC3)CC2)O1 (stereo not drawn) [OZ185] | 1.1 ng/mL (≈ 3.44 nM) | 1.4 ng/mL (≈ 4.38 nM) | 86 | 99.96 | 56 | 7.7 | 10.7 | 6.7
COCC(=O)N[C@H]1CC[C@]2(CC1)OOC1(O2)C2CC3CC(C2)CC1C3 (stereo partly drawn) [OZ186] | >10/>10 ng/ml | >10/>10 ng/ml | 87 | 67 | 96 | 8.0 | 8.0 | 9.0
CN(C)C(=O)N[C@H]1CC[C@]2(CC1)OOC1(O2)C2CC3CC(C2)CC1C3 (stereo partly drawn) [OZ187] | 4.0 ng/mL (≈ 11.4 nM) | 6.8 ng/mL (≈ 19.4 nM) | 77 | 77 | 94 | 7.7 | 7.0 | 10.0
CN(C)S(=O)(=O)N1CCC2(CC1)OOC1(O2)C2CC3CC(C2)CC1C3 (stereo not drawn) [OZ190] | 0.16 ng/mL (≈ 0.43 nM) | 1.0 ng/mL (≈ 2.68 nM) | 98 | 2 | 78 | 8.7 | 5.7 | 7.7
N=C(N)N1CCC2(CC1)OOC1(O2)C2CC3CC(C2)CC1C3 (stereo not drawn) [OZ191] | 6.0 ng/mL (≈ 19.5 nM) | > 10 ng/mL | 7 | 17 | 5 | 5.7 | 6.0 | 5.7
Fc1ccc(OC2CCC3(CC2)OOC2(O3)C3CC4CC(C3)CC2C4)cc1 (stereo not drawn) [OZ193] | 5.5 ng/mL (≈ 14.7 nM) | 8.3 ng/mL (≈ 22.2 nM) | 99.75 | 99.92 | 93 | 9.3 | 11.0 | 8.0
O=C(O)CCC(=O)N[C@H]1CC[C@]2(CC1)OOC1(O2)C2CC3CC(C2)CC1C3 (stereo partly drawn) [OZ196] | >10/>10 ng/ml | >10/>10 ng/ml | 10 | 17 | 0 | 6.0 | 5.7 | 5.3
O=C(O)c1cccc([C@H]2CC[C@]3(CC2)OOC2(O3)C3CC4CC(C3)CC2C4)c1 (stereo partly drawn) [OZ198] | >10/>10 ng/ml | >10/>10 ng/ml | 4 | 6 | 6 | 5.7 | 5.7 | 6.0
CCS(=O)(=O)CCN1CCC2(CC1)OOC1(O2)C2CC3CC(C2)CC1C3 (stereo not drawn) [OZ200] | 1.0 ng/mL (≈ 2.59 nM) | 2.9 ng/mL (≈ 7.52 nM) | 81 | 92 | 78 | 7.0 | 8.0 | 7.3
